{"source": "patent US20090062255A1", "about": "“TUMOR-TARGETING EVALUATION METHODOLOGY AND COMPOUNDS RELATED THERETO” (THALLION PHARMACEUTICALS INC., priority 2007, published 2009)", "key": {"PBR": {"molecular_target": "T1, PBR (Rattus norvegicus, UniProt P16257)", "T1 construct": "from tissue; host or cells: orthotopic rat C6 glioma in Sprague-Dawley rats, in vivo", "assay": "In vivo PBR occupancy by PET (11C-(R)-PK11195) following IP administration", "conditions": "30 mg/kg IP, 30 min before scan, mean±S.D.", "experimental": "(R)-1-(2-chlorophenyl)-N-methyl-N-(1-methyl-propyl)-3-isoquinoline carboxamide (R N-desmethyl PK11195), the precursor for the radioisotope-labeled (R) —PK11195, was purchased from ABX (Radeburg, Germany). The synthesis of ^11C-(R)-PK11195 was accomplished by a modification of the method of Camsonne et al. (J. Label. Compd. Radiopharm., 21: 985-991,1984). Briefly, ^11C-methyl iodide (^11C—CH3I) was transferred by a stream of nitrogen gas at a flow rate of 10 ml/min into a reaction medium containing 1 mg or R—N-desmethyl PK11195 previously dissolved in 0.5 mL of dimethylsulfoxide (DMSO) and about 20 mg of sodium hydroxide. The reaction was initiated at room temperature, with a bubbling of the ^11C—CH3I being continued over a 5 minute period. After bubbling was complete, the reaction mixture was left standing for 5 minutes. Purification was performed by high pressure liquid chromatography (HPLC) using a reverse-phase C18 column and a methanol:ammonium formate (20 mM) (80:20) mixture and a mobile phase at a flow rate of 3 mL/min. ^11C—(R) —PK11195 was eluted at 11 minutes and obtained with a specific radioactivity of […].\nIn vivo PET studies were performed 14 days post tumor implantation. […] Attenuation correction factors, for each rat (total of 7 animals), were determined using a 10 min ^57Co transmission scan acquired immediately prior to the dynamic scan. […]"}, "[1]": {"molecular_target": "T2, peripheral benzodiazepine receptor (PBR) (Rattus norvegicus, UniProt P16257)", "T2 construct": "CBR and PBR were obtained from rat brain and heart membrane-fractions, respectively; from tissue; host or cells: Wistar rat heart membranes", "assay": "In-house PBR binding assay ([3H]PK11195, rat heart mitochondrial membranes)"}, "[2]": {"system": "U 373 astrocytoma cell line", "assay": "MTT cytotoxicity, U 373 cell line", "assay_type": "cell-based", "conditions": "U373 MG, 96 h, Human", "experimental": "(§1) The cytotoxic activity of Compound 1 was further evaluated using a panel of brain tumor cell lines. This study was performed in collaboration with INSERM (Grenoble, France). Tumor cells (5,000 to 10,000 cells per well depending on their doubling time) were plated in 96-well flat-bottom plates and incubated for 24 hours before treatment. Tumor cells were then incubated for 96 hours with seven different concentrations of Compound 1: […], 0.01, and 0.001 μM. The in vitro cytotoxic activity was determined by a standard MTT assay."}, "[3]": {"system": "phosphorylation of Raf-1 and ERK1/2 (Ras-MAPK signaling pathway)", "assay": "Western blot of EGF-induced Raf-1 and ERK1/2 phosphorylation in tumor cells", "assay_type": "cell-based, human", "conditions": "10 μM", "experimental": "The effect of ECO-4601 on downstream events of Ras signaling was subsequently examined by monitoring the phosphorylation levels of Raf-1 and ERK1/2 by Western blot analysis. To study the effect of ECO-4601 on the Ras-MAPK signaling pathway, exponentially growing cells (human breast MCF-7 tumor cells, human breast MDA-MB-231 tumor cells, human glioma U 87-MG tumor cells and human prostate PC-3 tumor cells) were seeded onto 60 mm tissue culture dishes (0.5 to 0.8×10^6 cells per dish) for 24 h. The media was removed and cells were treated with 10 μM ECO-4601 in culture medium supplemented with 0.1% FBS for 30 min, 1 h, 4 h and 6 h, and subsequently exposed to EGF at 50 ng/mL for 10 min at 37° C. Control plates consisted of cells incubated in culture medium containing 0.1% FBS and 0.05% DMSO (vehicle) with or without EGF stimulation. At the end of each treatment, media was removed and cells rinsed with ice-cold PBS. Cells were then harvested by scraping and cell pellets were lysed in ice-cold RIPA buffer for 20 minutes on ice. Unsolubilized material was pelleted and discarded. The protein concentration of each lysate was quantified using the Bio-Rad protein assay (Bio-Rad Laboratories). Equivalent amounts of protein (20-30 μg protein) were separated on 10% or 12% SDS-PAGE under reducing conditions, transferred onto nitrocellulose membranes (0.2 μm; Bio-Rad Laboratories) and blotted as above with phospho-c-Raf (Ser338) and c-Raf (Cell Signaling Technology Inc., Boston, Mass.), phospho-p44/42 (Thr2O2/Tyr204, p-ERK1/2) and p44/42 (ERK1/2) MAP Kinases (Cell Signaling Technology Inc.) and GAPDH (SantaCruz Biotechnology Inc.)."}, "[4]": {"system": "C6 glioblastoma cell line", "assay": "MTT cytotoxicity, C6 cell line", "assay_type": "cell-based", "conditions": "96 h, Rat", "experimental": "as §1"}, "[5]": {"system": "human breast cell line MDA-MB-231", "assay": "Growth inhibitory MTT assay, MDA-MB-231", "assay_type": "cell-based", "conditions": "72 hours, treated over control", "experimental": "Growth inhibitory activity of ECO-4601 (Compound 1) and other dibenzodiazepinone analogs was evaluated on a panel of 4 human tumor cell lines: the human uterine sarcoma MES-SA and its doxorubicin-resistant P-glycoprotein over-expressing variant, MES-SA/DX5 as well as non-aggressive and highly aggressive human breast cell lines, MCF-7 and MDA-MB-231, respectively. These four cell lines were obtained from the American Type Culture Collection (Manassas, Va.) and cultured in RPMI plus 10% fetal bovine serum (FBS) and maintained at 37° C. with 5% CO2.\nExponentially growing cells (5,000 cells per well time; cell number determined with a hemocytometer) were seeded in 96-well flat-bottom plates and allowed to grow overnight. Cells were then incubated for 72 hours with three different concentrations of ECO-4601 or analogs: 30,10, and 3 μM. The in vitro growth inhibitory activity was determined by a commercial MTT assay. All measurements were done in quadruplicate and each experiment was performed 2-3 times. The lower the value, the more cytotoxic is the compound."}, "[6]": {"system": "GHD astrocytoma cell line", "assay": "MTT cytotoxicity, GHD cell line", "assay_type": "cell-based", "conditions": "96 h, Human", "experimental": "as §1"}}}
{"smiles": "CC(C)=CCC/C(C)=C/CC/C(C)=C/CN1C(=O)c2cccc(O)c2Nc2c(O)cc(O)cc21", "note": "[Compound 1, 10-farnesyl-4,6,8-trihydroxy-5,10-dihydrodibenzo[b,e][1,4]diazepin-11-one]", "values": [{"measurement": "mean tumor binding potential (B.P.) after compound", "setting": "PBR", "result": "1.05±0.34"}, {"measurement": "EC50", "setting": "[1]", "result": 2.8, "unit": "µM"}, {"measurement": "PBR binding (in words)", "setting": "[1]", "result": "bind the PBR"}, {"measurement": "Ki", "setting": "[1]; Ki=EC50/(1+[ligand]/Kd), [ligand]=1.6 nM, read-out: calculated Ki", "result": "~1.4", "unit": "µM"}, {"measurement": "IC50", "setting": "[1]; in-house radioligand-binding assay", "result": 2.7, "unit": "µM"}, {"measurement": "IC50", "setting": "[2]", "result": "3.8 ± 1.4", "unit": "µM"}, {"measurement": "amount of total Raf-1", "setting": "[3]", "result": "decrease"}, {"measurement": "time to complete inhibition of protein phosphorylation", "setting": "[3]", "result": "≤ 6", "unit": "h"}, {"measurement": "inhibition of EGF-induced phosphorylation of Raf-1 and ERK1/2", "setting": "[3]; MCF-7, MDA-MB-231, U 87-MG and PC-3 cells", "result": "strong inhibition"}, {"measurement": "IC50", "setting": "[4]", "result": "4.3 ± 2.3", "unit": "µM"}, {"measurement": "% T/C at 10 μM", "setting": "[5]", "result": 38, "unit": "%"}, {"measurement": "IC50", "setting": "[6]", "result": "6.5 ± 2.9", "unit": "µM"}]}
